# Data published in publication PMC5218480 (PLoS ONE, 2017).
# System: MV-4-11 cells
# Assay: Gene expression microarray analysis (Affymetrix PrimeView) and GSEA
# Format: cell-based, human
# Design: RFU PODN (11730768_x_at) / Fold change /veh PODN (11730768_x_at) / RFU LINC00158 (11744669_a_at) / Fold change /veh LINC00158 (11744669_a_at) / RFU DUSP10 (11751237_a_at) / Fold change /veh DUSP10 (11751237_a_at) / RFU ID3 (11757404_x_at) / Fold change /veh ID3 (11757404_x_at) / RFU PLEKHG5 (11737974_s_at) / Fold change /veh PLEKHG5 (11737974_s_at) / RFU LRRC4B (11730491_at) / Fold change /veh LRRC4B (11730491_at) / RFU GIMAP4 (11747438_a_at) / Fold change /veh GIMAP4 (11747438_a_at) / RFU KRT8 (11758183_x_at) / Fold change /veh KRT8 (11758183_x_at) / RFU CNN1 (11734310_a_at) / Fold change /veh CNN1 (11734310_a_at) / RFU VPS37D (11726825_at) / Fold change /veh VPS37D (11726825_at) / RFU C10orf10 (11716522_x_at) / Fold change /veh C10orf10 (11716522_x_at) / RFU KIR2DL2 /// KIR2DL4 /// KIR2DL5A /// KIR2DL5B /// KIR2DS1 /// KIR2DS2 /// KIR2DS3 /// KIR2DS4 /// KIR3DL3 /// KIR3DL3 /// KIR3DS1 (11738374_at) / Fold change /veh KIR2DL2 /// KIR2DL4 /// KIR2DL5A /// KIR2DL5B /// KIR2DS1 /// KIR2DS2 /// KIR2DS3 /// KIR2DS4 /// KIR3DL3 /// KIR3DL3 /// KIR3DS1 (11738374_at) / RFU C1QL1 (11718748_at) / Fold change /veh C1QL1 (11718748_at) / RFU TMPRSS4 (11747572_a_at) / Fold change /veh TMPRSS4 (11747572_a_at) / RFU HAMP (11756126_x_at) / Fold change /veh HAMP (11756126_x_at) / RFU RNFT2 (11725882_a_at) / Fold change /veh RNFT2 (11725882_a_at) / RFU NR4A2 (11747474_a_at) / Fold change /veh NR4A2 (11747474_a_at) / RFU ABCC12 (11746883_a_at) / Fold change /veh ABCC12 (11746883_a_at) / RFU TMEM136 (11760407_x_at) / Fold change /veh TMEM136 (11760407_x_at) / RFU CLDN22 /// WWC2 (11732394_at) / Fold change /veh CLDN22 /// WWC2 (11732394_at) / RFU HLA-DPB1 (11760878_x_at) / Fold change /veh HLA-DPB1 (11760878_x_at) / RFU SPINT1 (11716480_a_at) / Fold change /veh SPINT1 (11716480_a_at) / RFU GAP43 (11754022_s_at) / Fold change /veh GAP43 (11754022_s_at) / RFU A4GNT (11735810_at) / Fold change /veh A4GNT (11735810_at) / RFU PRB3 (11715151_x_at) / Fold change /veh PRB3 (11715151_x_at) / RFU TUBB4B (11761932_at) / Fold change /veh TUBB4B (11761932_at) / RFU CAPN14 (11732068_a_at) / Fold change /veh CAPN14 (11732068_a_at) / RFU TMCC2 (11721928_a_at) / Fold change /veh TMCC2 (11721928_a_at) / RFU IRGQ (11745062_a_at) / Fold change /veh IRGQ (11745062_a_at) / RFU FAM174B (11720279_a_at) / Fold change /veh FAM174B (11720279_a_at) / RFU TMPRSS4 (11748680_a_at) / Fold change /veh TMPRSS4 (11748680_a_at) / RFU FAM212B (11763350_a_at) / Fold change /veh FAM212B (11763350_a_at) / RFU PLEKHG5 (11743358_a_at) / Fold change /veh PLEKHG5 (11743358_a_at) / RFU ZSCAN30 (11745921_a_at) / Fold change /veh ZSCAN30 (11745921_a_at) / RFU CMKLR1 (11741424_a_at) / Fold change /veh CMKLR1 (11741424_a_at) / RFU LOC101060620 /// MAPK8IP1 (11723275_at) / Fold change /veh LOC101060620 /// MAPK8IP1 (11723275_at) / RFU SPTSSB (11747773_x_at) / Fold change /veh SPTSSB (11747773_x_at) / RFU PRSS12 (11739890_at) / Fold change /veh PRSS12 (11739890_at) / RFU BIN1 (11741810_x_at) / Fold change /veh BIN1 (11741810_x_at) / RFU WNT11 (11732464_a_at) / Fold change /veh WNT11 (11732464_a_at) / RFU C10orf10 (11716521_a_at) / Fold change /veh C10orf10 (11716521_a_at) / RFU C5orf56 (11738089_at) / Fold change /veh C5orf56 (11738089_at) / RFU CYB561 (11721691_x_at) / Fold change /veh CYB561 (11721691_x_at) / RFU ANKRD19P (11752326_a_at) / Fold change /veh ANKRD19P (11752326_a_at) / RFU OR2T12 /// OR2T33 /// OR2T8 (11738714_s_at) / Fold change /veh OR2T12 /// OR2T33 /// OR2T8 (11738714_s_at) / RFU VCAN (11748164_a_at) / Fold change /veh VCAN (11748164_a_at) / RFU JSRP1 (11732532_at) / Fold change /veh JSRP1 (11732532_at) / RFU KRTAP10-11 (11738290_x_at) / Fold change /veh KRTAP10-11 (11738290_x_at) / RFU MYO3A (11730013_a_at) / Fold change /veh MYO3A (11730013_a_at) / RFU EBF3 (11725865_a_at) / Fold change /veh EBF3 (11725865_a_at) / RFU CAMK2N1 (11719241_x_at) / Fold change /veh CAMK2N1 (11719241_x_at) / RFU C5orf56 (11738088_a_at) / Fold change /veh C5orf56 (11738088_a_at) / RFU OLFML3 (11715873_a_at) / Fold change /veh OLFML3 (11715873_a_at) / RFU LOC100653217 /// NTM (11731650_a_at) / Fold change /veh LOC100653217 /// NTM (11731650_a_at) / RFU MAPK11 (11762145_a_at) / Fold change /veh MAPK11 (11762145_a_at) / RFU FIZ1 (11724087_x_at) / Fold change /veh FIZ1 (11724087_x_at) / RFU OASL (11726364_x_at) / Fold change /veh OASL (11726364_x_at) / RFU SOX15 (11748057_x_at) / Fold change /veh SOX15 (11748057_x_at) / RFU CD79A (11719716_a_at) / Fold change /veh CD79A (11719716_a_at) / RFU HIST1H1D (11736915_at) / Fold change /veh HIST1H1D (11736915_at) / RFU CASKIN2 (11723855_a_at) / Fold change /veh CASKIN2 (11723855_a_at) / RFU LOC730098 (11760151_x_at) / Fold change /veh LOC730098 (11760151_x_at) / RFU OR4N2 (11742367_at) / Fold change /veh OR4N2 (11742367_at) / RFU PRRT2 (11749266_a_at) / Fold change /veh PRRT2 (11749266_a_at) / RFU SNX32 (11753110_a_at) / Fold change /veh SNX32 (11753110_a_at) / RFU CDHR5 (11726645_a_at) / Fold change /veh CDHR5 (11726645_a_at) / RFU RCAN1 (11760418_a_at) / Fold change /veh RCAN1 (11760418_a_at) / RFU FAM167A (11723789_a_at) / Fold change /veh FAM167A (11723789_a_at) / RFU FAM26E (11764081_at) / Fold change /veh FAM26E (11764081_at) / RFU ISYNA1 (11749810_s_at) / Fold change /veh ISYNA1 (11749810_s_at) / RFU ACY1 (11761880_at) / Fold change /veh ACY1 (11761880_at) / RFU 11764098_at / Fold change /veh 11764098_at / RFU SAMD14 (11745864_x_at) / Fold change /veh SAMD14 (11745864_x_at) / RFU NPB (11741838_a_at) / Fold change /veh NPB (11741838_a_at) / RFU TMPRSS6 (11731388_a_at) / Fold change /veh TMPRSS6 (11731388_a_at) / RFU KRTAP10-2 (11738614_at) / Fold change /veh KRTAP10-2 (11738614_at) / RFU ARHGAP8 /// PRR5-ARHGAP8 (11727945_x_at) / Fold change /veh ARHGAP8 /// PRR5-ARHGAP8 (11727945_x_at) / RFU KRTAP5-7 /// NADSYN1 (11734609_at) / Fold change /veh KRTAP5-7 /// NADSYN1 (11734609_at) / RFU RASL12 (11751679_a_at) / Fold change /veh RASL12 (11751679_a_at) / RFU CDKN2B (11736163_a_at) / Fold change /veh CDKN2B (11736163_a_at) / RFU PRF1 (11729649_at) / Fold change /veh PRF1 (11729649_at) / RFU, ZNF638 /// ZNF638-IT1 / Fold change vs veh, ZNF638 /// ZNF638-IT1 / RFU, PANK3 / Fold change vs veh, PANK3 / RFU, SH3YL1 / Fold change vs veh, SH3YL1 / RFU, ZEB2 / Fold change vs veh, ZEB2 / RFU, NRIP1 / Fold change vs veh, NRIP1 / RFU, PTTG1IP / Fold change vs veh, PTTG1IP / RFU, CAPN2 / Fold change vs veh, CAPN2 / RFU, MED14 / Fold change vs veh, MED14 / RFU, SNORA58 / Fold change vs veh, SNORA58 / RFU, C1orf63 / Fold change vs veh, C1orf63 / RFU, LRRFIP1 / Fold change vs veh, LRRFIP1 / RFU, NDUFAF7 / Fold change vs veh, NDUFAF7 / RFU, SLC12A2 / Fold change vs veh, SLC12A2 / RFU, IBTK / Fold change vs veh, IBTK / RFU, ESF1 / Fold change vs veh, ESF1 / Fold change vs veh, TMEM50B / RFU, TAOK1 / Fold change vs veh, TAOK1 / RFU, ACBD3 / Fold change vs veh, ACBD3 / RFU, TMA16 / Fold change vs veh, TMA16 / RFU, RWDD3 / Fold change vs veh, RWDD3 / RFU, BCAT1 / Fold change vs veh, BCAT1 / RFU, EDEM3 / Fold change vs veh, EDEM3 / RFU, TMEM33 / Fold change vs veh, TMEM33 / RFU, WDR75 / Fold change vs veh, WDR75 / RFU, AHCTF1 / Fold change vs veh, AHCTF1 / RFU, TFRC / Fold change vs veh, TFRC / RFU, ZDHHC17 / Fold change vs veh, ZDHHC17 / RFU, NOM1 / Fold change vs veh, NOM1 / RFU, ARL8B / Fold change vs veh, ARL8B / RFU, ZBTB11 / Fold change vs veh, ZBTB11 / RFU, TAMM41 / Fold change vs veh, TAMM41 / RFU, KIAA1704 /// LOC100996395 / Fold change vs veh, KIAA1704 /// LOC100996395 / RFU, ING1 / Fold change vs veh, ING1 / RFU, TRMT61B / Fold change vs veh, TRMT61B / RFU, FUBP3 / Fold change vs veh, FUBP3 / RFU, TP53 / Fold change vs veh, TP53 / RFU, TNKS2 / Fold change vs veh, TNKS2 / RFU, ZFP14 / Fold change vs veh, ZFP14 / RFU, ACTR2 / Fold change vs veh, ACTR2 / RFU, PPP3R1 / Fold change vs veh, PPP3R1 / RFU, PIK3R1 / Fold change vs veh, PIK3R1 / RFU, HNRNPA1 / Fold change vs veh, HNRNPA1 / RFU, RNF170 / Fold change vs veh, RNF170 / RFU, ZNF28 / Fold change vs veh, ZNF28 / RFU, RNGTT / Fold change vs veh, RNGTT / RFU, OGT / Fold change vs veh, OGT / RFU, BRD1 / Fold change vs veh, BRD1 / RFU, MARS / Fold change vs veh, MARS / RFU, ZNF655 / Fold change vs veh, ZNF655 / RFU, FAHD1 / Fold change vs veh, FAHD1 / RFU, BDP1 / Fold change vs veh, BDP1 / RFU, LRRCC1 / Fold change vs veh, LRRCC1 / RFU, ARID1A / Fold change vs veh, ARID1A / RFU, ZNF146 / Fold change vs veh, ZNF146 / RFU, ZNF330 / Fold change vs veh, ZNF330 / RFU, GPN3 / Fold change vs veh, GPN3 / RFU, C9orf123 / Fold change vs veh, C9orf123 / RFU, N4BP2L2 / Fold change vs veh, N4BP2L2 / RFU, ARFIP1 / Fold change vs veh, ARFIP1 / RFU, FAM179B / Fold change vs veh, FAM179B / RFU, BCL10 / Fold change vs veh, BCL10 / RFU, UHRF1BP1L / Fold change vs veh, UHRF1BP1L / RFU, BET1 / Fold change vs veh, BET1 / RFU, CNOT2 / Fold change vs veh, CNOT2 / RFU, ZNF268 / Fold change vs veh, ZNF268 / Fold change vs veh, ZNF507 / RFU, DGCR2 / Fold change vs veh, DGCR2 / RFU, WDSUB1 / Fold change vs veh, WDSUB1 / Fold change vs veh, HSP90B1 /// MIR3652 / RFU, ADSS / Fold change vs veh, ADSS / RFU, GK / Fold change vs veh, GK / RFU, ZNF148 / Fold change vs veh, ZNF148 / RFU, TAF9 / Fold change vs veh, TAF9 / RFU, SLC1A5 / Fold change vs veh, SLC1A5 / RFU, SLMO2 / Fold change vs veh, SLMO2 / RFU, ABCC4 / Fold change vs veh, ABCC4 / RFU, LOC101060439 /// RAP1B / Fold change vs veh, LOC101060439 /// RAP1B / RFU, RFX7 / Fold change vs veh, RFX7 / RFU, GTPBP10 / Fold change vs veh, GTPBP10 / RFU, CNEP1R1 / Fold change vs veh, CNEP1R1 / RFU, BIVM-ERCC5 /// ERCC5 / Fold change vs veh, BIVM-ERCC5 /// ERCC5 / RFU, ILF3 / Fold change vs veh, ILF3 / RFU 11762660_at / Fold change /veh 11762660_at / RFU VCAN (11757783_s_at) / Fold change /veh VCAN (11757783_s_at) / RFU DDX43 (11728927_at) / Fold change /veh DDX43 (11728927_at) / RFU KRT8 (11758188_x_at) / Fold change /veh KRT8 (11758188_x_at) / RFU NKD1 (11759106_at) / Fold change /veh NKD1 (11759106_at) / RFU SRD5A1 (11742802_a_at) / Fold change /veh SRD5A1 (11742802_a_at) / RFU TPSAB1 /// TPSB2 (11721975_s_at) / Fold change /veh TPSAB1 /// TPSB2 (11721975_s_at) / RFU GSTM3 (11746129_a_at) / Fold change /veh GSTM3 (11746129_a_at) / RFU IL23R (11737362_x_at) / Fold change /veh IL23R (11737362_x_at) / RFU TMEM51 (11727254_a_at) / Fold change /veh TMEM51 (11727254_a_at) / RFU PIWIL2 (11732686_x_at) / Fold change /veh PIWIL2 (11732686_x_at) / RFU ORM1 (11744905_x_at) / Fold change /veh ORM1 (11744905_x_at) / RFU CCDC152 (11743942_at) / Fold change /veh CCDC152 (11743942_at) / RFU ECM1 (11717891_a_at) / Fold change /veh ECM1 (11717891_a_at) / RFU IL23R (11748794_a_at) / Fold change /veh IL23R (11748794_a_at) / RFU TNFAIP8L3 (11732012_x_at) / Fold change /veh TNFAIP8L3 (11732012_x_at) / RFU MBOAT4 (11741988_at) / Fold change /veh MBOAT4 (11741988_at) / RFU 11764193_at / Fold change /veh 11764193_at / RFU TMEM53 (11763286_at) / Fold change /veh TMEM53 (11763286_at) / RFU MAGEB2 (11727129_at) / Fold change /veh MAGEB2 (11727129_at) / RFU TMEM200A (11744735_a_at) / Fold change /veh TMEM200A (11744735_a_at) / RFU CCDC152 (11751479_a_at) / Fold change /veh CCDC152 (11751479_a_at) / RFU FAM211A (11726209_a_at) / Fold change /veh FAM211A (11726209_a_at) / RFU RGS16 (11746705_a_at) / Fold change /veh RGS16 (11746705_a_at) / RFU VCAN (11755009_s_at) / Fold change /veh VCAN (11755009_s_at) / RFU RHOB (11743442_s_at) / Fold change /veh RHOB (11743442_s_at) / RFU RGS16 (11720943_a_at) / Fold change /veh RGS16 (11720943_a_at) / RFU RGS16 (11720944_at) / Fold change /veh RGS16 (11720944_at) / RFU, VPS4B / Fold change vs veh, VPS4B / RFU, CREB1 / Fold change vs veh, CREB1 / RFU, DNAJC13 / Fold change vs veh, DNAJC13 / RFU, GNAQ / Fold change vs veh, GNAQ / RFU, CDK5R1 / Fold change vs veh, CDK5R1 / RFU, ZRANB3 / Fold change vs veh, ZRANB3 / RFU, CUL4A / Fold change vs veh, CUL4A / RFU, CCNY / Fold change vs veh, CCNY / RFU, UFL1 / Fold change vs veh, UFL1 / RFU, COG3 / Fold change vs veh, COG3 / RFU, DIAPH2 / Fold change vs veh, DIAPH2 / RFU, SKA2 / Fold change vs veh, SKA2 / RFU, AFF3 / Fold change vs veh, AFF3 / RFU, LMF1 / Fold change vs veh, LMF1 / RFU, IPO11 / Fold change vs veh, IPO11 / RFU, DFFB / Fold change vs veh, DFFB / RFU, FOXP1 / Fold change vs veh, FOXP1 / RFU, CARD8 / Fold change vs veh, CARD8 / RFU, STRN3 / Fold change vs veh, STRN3 / RFU, ADK / Fold change vs veh, ADK / RFU, RASSF2 / Fold change vs veh, RASSF2 / RFU, WIPF1 / Fold change vs veh, WIPF1 / RFU, LARP1B / Fold change vs veh, LARP1B / RFU, RASA1 / Fold change vs veh, RASA1 / RFU, RB1 / Fold change vs veh, RB1 / RFU, PPFIA1 / Fold change vs veh, PPFIA1 / RFU, MAT2A / Fold change vs veh, MAT2A / RFU, CCT5 / Fold change vs veh, CCT5 / RFU, WDR92 / Fold change vs veh, WDR92 / RFU, CUX1 / Fold change vs veh, CUX1 / RFU, TTC7A / Fold change vs veh, TTC7A / RFU, TMEM135 / Fold change vs veh, TMEM135 / RFU, DEPTOR / Fold change vs veh, DEPTOR / RFU, CPM / Fold change vs veh, CPM / RFU, DNAJB6 / Fold change vs veh, DNAJB6 / RFU, CACNA2D3 / Fold change vs veh, CACNA2D3 / RFU, DTX4 / Fold change vs veh, DTX4 / RFU, TFCP2 / Fold change vs veh, TFCP2 / RFU, GMCL1 /// GMCL1P1 / Fold change vs veh, GMCL1 /// GMCL1P1 / RFU, AEBP2 / Fold change vs veh, AEBP2 / RFU, SNHG1 /// SNORD22 /// SNORD25 /// SNORD26 /// SNORD27 /// SNORD28 /// SNORD29 /// SNORD31 / Fold change vs veh, SNHG1 /// SNORD22 /// SNORD25 /// SNORD26 /// SNORD27 /// SNORD28 /// SNORD29 /// SNORD31 / Fold change (Aza/veh), C12orf56 (ProbeSet 11735607_a_at) / Fold change (ACY-1035/veh), C12orf56 (ProbeSet 11735607_a_at) / Fold change (Aza/veh), FGFR1OP (ProbeSet 11751329_s_at) / Fold change (ACY-1035/veh), FGFR1OP (ProbeSet 11751329_s_at) / Fold change (Aza/veh), VPS36 (ProbeSet 11739960_a_at) / Fold change (ACY-1035/veh), VPS36 (ProbeSet 11739960_a_at) / RFU SYPL1 (11715823_x_at) / Fold change /veh SYPL1 (11715823_x_at) / RFU IGFBP7 (11715501_s_at) / Fold change /veh IGFBP7 (11715501_s_at) / RFU REEP3 (11722064_at) / Fold change /veh REEP3 (11722064_at) / RFU IGLL1 (11728026_x_at) / Fold change /veh IGLL1 (11728026_x_at): dose or concentration left out as unconfirmed
# Details: ProbeSet 11755159_a_at; LIST D
smiles,measurement,value
Nc1ccc(-c2cccs2)cc1NC(=O)c1ccc2c(c1)cc(C1CC1)n2CCN1CCOCC1 [ACY-1035],"RFU, COG3",86.80 RFU
